Experimental data taken from patent publication US8779092B2, “Metastasis-specific peptides and their diagnostic and therapeutic applications” (Universita Degli Studi di Torino, priority 2006, dated 2014).

Test system: primary cells of hepatic metastasis
Assay: Binding experiments on primary cells
Design: species or system human
Conditions: for binding of phage clone to primary hepatic metastasis cells, summary over samples: all tested patient samples; for binding of phage clone to primary hepatic metastasis cells: compared to normal liver of the same patient
Method: Samples were processed immediately after surgical removal, in order to disaggregate the tissues and extract single cells on which to perform the experiments. All the manipulations were performed under laminar flux in sterility. Samples were chopped with a scalpel in a small volume of PBS. The suspension, collected in PBS, was centrifuged for 3 minutes at 100 rpm at room temperature and the pellet was resuspended in 5 ml of collagenase (0.25% weight/volume in DMEM). The digestion of the tissue fragments was done incubating this suspension for 2 hours at 37° C. while shaking. The sample was again centrifuged, to eliminate all the particulate under the cell size (lipid aggregates, cell portions) or also smaller cells, of hematopoietic origin. Pellet was washed twice in PBS. Cells were filtered on filters with a diameter of 45 μm, counted in Burker chamber and resuspended at a concentration of 10^6/ml in DMEM/FCS/HEPES.
These assays were performed with an Input of 10^9 TU of each clone, on cells from the hepatic metastasis cell line (target) and on cells from normal liver (negative control). The Output of these experiments was normalized on binding to an insertless phage, fd-tet, giving a measure of the unspecific interaction due to the phage itself. The binding increase was evaluated as ratio between normalized Output of the target and normalized Output of the negative control. All the experiments were repeated at least 3 times, when possible for material availability.
To evaluate if the selected inserts were specific for ubiquitous surface determinants in human hepatic metastases, the 7 selected clones were tested on primary cells of hepatic metastasis, comparing to normal liver of the same patients. For these binding assays, samples from 9 patients were used (20, 21, 22, 25, 26, 27, 28, 31, 32), with the same conditions described for the cell lines.
In the first experiments, due to the low cell numbers, related to the set up phase of the purification procedure, the binding of only some clones was evaluated. In general, 3 assays have been performed for each sample. […] It is interesting to note that, in the experiments on fresh cells, binding increases are much higher than in those performed with the cultured cell lines.

Substance | binding of phage clone to primary hepatic metastasis cells, summary over samples | binding of phage clone to primary hepatic metastasis cells (patient P#27) | binding of phage clone to primary hepatic metastasis cells (patient P#28)
ARPGLRS (listed as Homo sapiens) [SEQ ID NO. 1] | worked on all the samples | – | –
GIYRLRS ((6)..(6) May be fused with GST; listed as Homo sapiens) [SEQ ID NO. 6] | worked on all the samples | – | –
GVYSLRS (listed as Homo sapiens) [SEQ ID NO. 7] | worked on all the samples | – | –
LRPGLRS (listed as Homo sapiens) [SEQ ID NO. 3] | worked on all the samples | – | –
MRYALRS (listed as Homo sapiens) [SEQ ID NO. 2] | – | negative | negative
